From patent publication US8440686B2, “Nalmefene prodrugs” (Janssen Pharmaceutica NV, priority 2008, dated 2013)

Assay: In vivo PK studies in dog (oral administration): plasma levels of nalmefene
Conditions: oral administration of nalmefene itself
Method: C.2. In vivo PK Studies in Dog (Oral Administration): Plasma Levels of Nalmefene
Doses at 10 mg/kg or 20 mg/kg body weight of a compound of formula (I) or of nalmefene itself in a solution of 20% HP-β-CD (hydroxypropyl-β-cyclodextrines) were used and orally administered to dogs.
Blood samples were taken over a period of 192 hours after oral administration. Blood samples were processed to obtain plasma. Plasma samples were analysed individually for nalmefene by means of a qualified LC-MS/MS-method.

## C=C1CC[C@@]2(O)[C@H]3Cc4ccc(O)c5c4[C@@]2(CCN3CC2CC2)[C@H]1O5 [nalmefene, 17-cyclopropylmethyl-4,5α-epoxy-6-methylenemorphinan-3,14-diol]
  time for which plasma levels of nalmefene can be measured after oral administration: a few hours
